Test results: PMC11901902, “Design, Synthesis, and Cytotoxicity Evaluation of Novel Indolin-2-One Based Molecules on Hepatocellular Carcinoma HepG2 Cells as Protein Kinase Inhibitors” (Molecules, 2025)

What was measured:
CDK-4 = molecular target: T1, CDK-4 (Homo sapiens, UniProt P11802); assay: Kinase-Glo Plus luminescence kinase inhibition assay, CDK-4; assay type: biochemical; settings: 10 µM ATP, 30 °C, 40 min; mean ± SEM
T1 construct: purchased BPS Bioscience 79674
Procedure: The enzyme inhibition assay for the tested molecules was performed at BPS Bioscience Corporation, San Diego, CA, USA. The following materials served as the enzyme sources, Poly (Glu, Tyr) sodium salt (4:1, Glu:Tyr) (Sigma#P7244) served as the standardized substrate, and the Kinase-Glo Plus Luminescence kinase assay kit (Promega # V3772) was used. […] Glo Plus luminescence kinase assay kits. The assays were performed using Kinase-Glo Plus luminescence (Promega Corporation, Madison, WI, USA).
The tested molecules 9, 20, and indurbin were diluted to 100 µL in DMSO (10%), and 5 µL of the solution was added to a 50-µL enzyme reaction until the final concentration of DMSO was 1% in all of reactions. The enzymatic reactions were conducted at 30 °C for 40 min. The reaction mixture contained enzyme substrate and respective kinases. After the enzymatic reaction, 50 µL of enzyme-Glo Plus luminescence […] assay solution (Promega) was added to each reaction, and the plate was incubated for 5 min at room temperature. The luminescence signal was measured using a BioTek Synergy 2 microplate reader. The luminescence data were analyzed using the computer software GraphPad Prism. The difference between luminescence intensities in the absence of enzyme (Lut) and in the presence of enzyme (Luc) was defined as 100% activity (Lut − Luc). […] The IC50 value was determined using GraphPad Prism software. […]
Glo Plus luminescence kinase assay kits were used in these assays. […] The assay measures kinase activity by quantitating the amount of ATP remaining in the solution following kinase reaction. […] After the enzymatic reaction, 50 µL of Kinase-Glo Plus Luminescence kinase assay solution (Promega) was added to each reaction, and the plate was incubated for 5 min at room temperature. The luminescence signal was measured using a BioTek Synergy 2 microplate reader. […] The luminescence data were analyzed using the Graphpad Prism software.

p53 = assay: ELISA of p53 in treated HepG-2 cells; assay type: cell-based, human; settings: for upregulation of p53 expression compared to untreated cells: HepG-2, compound at its IC50, 24 h; for Concentration of p53: HepG-2, compound at its IC50, ± S.E.M, control 48.29±3.87
Procedure: (§1) HepG2 cells were cultured in RPMI 10% + 5%FBS penicillin/streptomycin and were incubated at a humidity 5% CO2 and maintained at 37 °C. […] HepG2 cells were cultured as a monolayer in T-25 flasks and were seeded to attain 30% confluency prior to treatment. The main 100 mM stock dissolved in DMSO was diluted with the cell culture medium in order to reach the previously determined IC50 concentration of each of the three preparations. After that, HepG2 cells were collected via trypsinization and centrifuged at 10,000 rpm. The pellet was then rinsed with PBS and lysed in RIPA lysis buffer at 4 °C for 45 min, then centrifuged at 14,000 rpm for 20 min to remove the cellular debris. Lysates were then collected and stored at […] for protein determination. The levels of p53, p21, Fas-L, Bax, Bcl-2, and caspase 3/7 were assessed using the human P53 ELISA kit (Catalog No. ABIN6962151), P21 ELISA kit (Catalog No. ABIN6966175), Human Apoptosis Ligand (FAS-L), Bax ELISA kit, Human Factor-Related. Bcl-2 ELISA kit ELISA kit, and caspase3/7 ELISA kit (Elabscience Biotechnology Co., Wuhan, Hubei, China). The procedure of the used kits was done according to the manufacturer’s instructions. Briefly, equal amounts of cell lysates were loaded and then probed with specific antibodies. The samples were measured at 450 nm in ROBONEK P2000 ELISA reader. The analysis was confirmed with three different sets of extracts. All experiments were done in triplicate (Tables S6–S9).

Fas-L = assay: ELISA of Fas-L in treated HepG-2 cells; assay type: cell-based, human; settings: for increase of Fas-L expression compared to untreated control: HepG-2, compound at its IC50, 24 h; for Concentration of Fas L: HepG-2, compound at its IC50, ± S.E.M, control 15.33±1.71
Procedure: as §1

HepG-2 cells = assay: MTT cytotoxicity assay on HepG-2 cells; assay type: cell-based, human; settings: for fold higher cytotoxicity than indirubin: HepG-2 cells, relative to indirubin; for viability at 1.25 µM / viability at 2.5 µM / viability at 5 µM / viability at 10 µM / viability at 20 µM / viability at 40 µM / viability at 80 µM / viability at 160 µM / IC50: Homo sapiens, HepG2; for viability at 1.25 µM: HepG-2, 1.25 µM; for viability at 1.25 µM / viability at 2.5 µM / viability at 5 µM / viability at 10 µM / viability at 20 µM / viability at 40 µM / viability at 80 µM / viability at 160 µM: Table S1; for viability at 2.5 µM: HepG-2, 2.5 µM; for viability at 5 µM: HepG-2, 5 µM; for viability at 10 µM: HepG-2, 10 µM; for viability at 20 µM: HepG-2, 20 µM; for viability at 40 µM: HepG-2, 40 µM; for viability at 80 µM: HepG-2, 80 µM; for viability at 160 µM: HepG-2, 160 µM; for IC50: MTT, 24 h treatment, mean of three experiments ± SEM
Procedure: Cytotoxic activity of the synthesized compounds was evaluated against HepG-2 and MCF-7 cancer cell lines using the MTT assay. The tested cell lines were obtained from the American Type Culture Collection (ATCC, […], USA) through the Tissue Culture Unit, The Egyptian Organization for Biological Products and Vaccines (Vacsera, Giza, Egypt). Indirubin, chemicals, and solvents were purchased from Sigma-Aldrich (St. Louis, MO, USA). The cells were grown on RPMI-1640 medium supplemented with 10% inactivated fetal calf serum and 50 µg/mL gentamycin. The cells were maintained at 37 °C in a humidified atmosphere with 5% CO2 and were sub-cultured two to three times per week. For antitumor assays, the tumor cell lines were suspended in the medium at concentration 5 × 10^4 cell/well in Corning® 96-well tissue culture plates (Corning, Corning, NY, USA), then incubated for 24 h. The tested molecules were then added to 96-well plates (six replicates) to achieve six concentrations for each compound. Six vehicle controls with media or 0.5% DMSO were run for each 96-well plate as a control. After incubating for 24 h, the numbers of viable cells were determined by the MTT test. Briefly, the media was removed from the 96 well plate and replaced with 100 µL of fresh culture RPMI 1640 medium without phenol red then 10 µL of the 12 mM MTT stock solution (5 mg of MTT in 1 mL of PBS) to each well including the untreated controls. The 96-well plates were then incubated at 37 °C and 5% CO2 for 4 h. An 85 µL aliquot of the media was removed from the wells, and 50 µL of DMSO was added to each well, mixed thoroughly with the pipette, and incubated at 37 °C for 10 min. Then, the optical density was measured at 590 nm with the microplate reader (SunRise, TECAN, Inc., Morrisville, NC, USA) to determine the number of viable cells, and the percentage of viability was calculated as […], where ODt is the mean optical density of wells treated with the tested sample and ODc is the mean optical density of untreated cells. The relation between surviving cells and drug concentration was plotted to obtain the survival curve of each tumor cell line after treatment with the specified compound. […] Each concentration was repeated four times.

T1 sequence (P11802 whole entry): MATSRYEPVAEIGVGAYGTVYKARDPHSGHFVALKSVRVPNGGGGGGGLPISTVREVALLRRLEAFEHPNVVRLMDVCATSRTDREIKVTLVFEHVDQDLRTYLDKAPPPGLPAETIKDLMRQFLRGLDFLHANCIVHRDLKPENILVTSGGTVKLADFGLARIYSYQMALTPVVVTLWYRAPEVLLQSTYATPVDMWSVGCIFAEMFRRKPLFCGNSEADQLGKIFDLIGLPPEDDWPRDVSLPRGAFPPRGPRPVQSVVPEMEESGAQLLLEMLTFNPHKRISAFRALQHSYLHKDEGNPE
T1 sequence (P30281 whole entry partner): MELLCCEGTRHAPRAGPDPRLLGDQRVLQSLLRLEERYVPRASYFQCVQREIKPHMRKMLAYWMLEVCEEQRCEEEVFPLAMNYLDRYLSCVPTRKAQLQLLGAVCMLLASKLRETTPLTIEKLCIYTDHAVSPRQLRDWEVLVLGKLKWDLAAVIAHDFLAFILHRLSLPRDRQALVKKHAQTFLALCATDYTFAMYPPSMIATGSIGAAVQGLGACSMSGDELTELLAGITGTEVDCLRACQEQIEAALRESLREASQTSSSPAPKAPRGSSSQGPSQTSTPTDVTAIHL

O=C1Nc2ccc(Cl)cc2C1=Nc1ccc2nc[nH]c(=O)c2c1 [Compound 9, 6-(5-Chloro-2-oxo-1,2-dihydro-indol-3-ylideneamino)-3H-quinazolin-4-one]
IC50 (CDK-4): 36.4 ± 4.52 nM | upregulation of p53 expression compared to untreated cells (p53): 6.7 fold | Concentration of p53 (p53): 325.11 ± 29.55 pg/mL | increase of Fas-L expression compared to untreated control (Fas-L): 5.7 fold | Concentration of Fas L (Fas-L): 86.11 ± 8.05 pg/mL | fold higher cytotoxicity than indirubin (HepG-2 cells): 2.2–2.7 fold | viability at 1.25 µM (HepG-2 cells): 61.3 ± 3.6% | viability at 2.5 µM (HepG-2 cells): 54.4 ± 3.1% | viability at 5 µM (HepG-2 cells): 34.8 ± 0.9% | viability at 10 µM (HepG-2 cells): 28.6 ± 2.1% | viability at 20 µM (HepG-2 cells): 23.1 ± 2.4% | viability at 40 µM (HepG-2 cells): 19.6 ± 2% | viability at 80 µM (HepG-2 cells): 16.3 ± 1.7% | viability at 160 µM (HepG-2 cells): 12.9 ± 1.5% | IC50 (HepG-2 cells): 2.53 ± 0.11 µM

O=C1Nc2ccc(Cl)cc2C1=Nc1ccc(-c2nc3ccccc3c(=O)[nH]2)cc1 [Compound 20, 2-[4-(5-Chloro-2-oxo-1,2-dihydro-indol-3-ylideneamino)-phenyl]-3H-quinazolin-4-one]
IC50 (CDK-4): 244 ± 12.2 nM | upregulation of p53 expression compared to untreated cells (p53): 2.65 fold | Concentration of p53 (p53): 127.43 ± 9.43 pg/mL | increase of Fas-L expression compared to untreated control (Fas-L): 4.1 fold | Concentration of Fas L (Fas-L): 62.06 ± 4.62 pg/mL | fold higher cytotoxicity than indirubin (HepG-2 cells): 2.2–2.7 fold | viability at 1.25 µM (HepG-2 cells): 58.2 ± 3.3% | viability at 2.5 µM (HepG-2 cells): 52.1 ± 2.9% | viability at 5 µM (HepG-2 cells): 36.7 ± 1.2% | viability at 10 µM (HepG-2 cells): 29.4 ± 2.5% | viability at 20 µM (HepG-2 cells): 21.7 ± 2% | viability at 40 µM (HepG-2 cells): 18.4 ± 1.8% | viability at 80 µM (HepG-2 cells): 15.2 ± 1.5% | viability at 160 µM (HepG-2 cells): 11.8 ± 1.3% | IC50 (HepG-2 cells): 3.08 ± 0.35 µM
